Converted amounts (≈) assume the structure as drawn. “And” between values parts separate entries of the source, which are not always exact repeats. Equal entries are not always repeated.
Tests used:
[1] = tested on: PCA (homologous passive cutaneous anaphylaxis) in rat; assay: Inhibitory activity against PCA in rat; format: in vivo, rat (male Slc: Wistar); details: Rattus norvegicus; 5 mg/kg oral, 1 hour before antigen challenge; read-out: Inhibition rate against PCA
Protocol: An anti-dinitrophenylated-ovalbumin (hereinafter referred to as "anti-DNP-OVA") rat antiserum having 800 of PCA titer in homologous passive cutaneous anaphylaxis reaction in rats for 48 hours, was diluted 200 times with physiological saline, and diluted antiserum was injected intradermally into back of groups of 5 male Slc: Wistar rats weighing 130-150 g in a volume of 50 μl/site to be passively sensitized. After 48 hours, 0.6 ml of 1% (w/v) Evans blue solution containing 1.5 mg of antigen DNP-OVA was administered intravenously into the tail. Thirty minutes later, the rats were bled to death and skin of the rats was removed. According to the method of Katayama et al [Microbiol. […] The test compound was suspended in 0.5% (w/v) aqueous solution of carboxymethylcellulose (hereinafter referred to as "CMC"), the suspension was administered orally in a ratio of 5 mg/kg 1 hour before challenging an antigen.
Inhibition rate against PCA was calculated according to the following equation. [formula] M: Amount of leaked pigment in antibody-sensitized site under administration of CMC without the test compound
S: Amount of leaked pigment in antibody-sensitized site under administration of the test compound in CMC
B: Amount of leaked pigment in antibody-nonsensitized site

[2] = tested on: carrageenin edema in a foot-pad of rat; assay: Effect on carrageenin edema in a foot-pad of rat; format: in vivo, rat (male Wister); details: 50 mg/kg p.o., 4 hours after carrageenin
Protocol: The test was carried out according to the modified method on a method of Winter et al [Proc. Soc. Exp. Biol Med., 111, 544-547 (1962)]. Five male Wister rats weighing 148 to 162 g which were subjected to fasting for 24 hours were used as one group.
The test compound was suspended in 0.5% aqueous solution of CMC, and the suspension was administered orally in a amount of 50 mg/kg. After 60 minutes, 0.1 ml of 1% carrageenin solution in physiological saline was injected subcutaneously into the foot-pad of the left hind foot. Four hours after the injection of carrageenin, the volume of the foot-pad was measured by the apparatus for measurement of foot-pad volume in rat (commercially available from Ugobasile).
Swelling volume was calculated from the difference between a volume of foot-pad before inflaming the foot-pad, i.e. normal volume and that after inflaming it. Effect of a test compound was expressed as inhibition rate against swelling by calculating percentage in comparison with the 0.5% CMC administration group.
Indomethacin (commercially available from Merck Co.) was used as a positive comparative drug.

[3] = tested on: histamine release from rat mast cell; assay: Inhibitory activity against histamine release from rat mast cell; format: cell-based; details: 10 μg/ml, read-out: Inhibitory rate against histamine release
[4] = tested on: smooth musculus trachealis; assay: Relaxant activity of smooth musculus trachealis in guinea pig; parameters: species or system guinea pig (male Hartley); details: Cavia porcellus; tracheal chain strips, 37° C.; read-out: Concentration for 50% relaxation
Protocol: Male Hartley guinea pigs weighing 350 to 550 g were bleed to death, and immediately the tracheae were extirpated. According to the method of Takagi et al [cf. Chem. Pharm. Bull., 8, 716 (1958)], tracheal chain strips was prepared, and the sample was suspended on Magnus apparatus under addition of load of 0.5 g. The test was carried out at 37° C. of liquid temperature. After position of tonus was examined with histamine (10^-6 g/ml) and isoproterenol (10^-7 g/ml), the test compound dissolved in a mixture of dimethyl sulfoxide and physiological saline was added thereto, and the test compound was investigated with respect to the effect on smooth musculus trachealis. Theophylline was used as a positive comparative drug. The relaxation and the contraction of smooth musculus trachealis were recorded on servocorder (SR 6342: commercially available from Watanabe Instruments Corp.) by connecting Isotonic Transducer (TD-1125: commercially available from Nihon Kohden Kogyo Co., Ltd.) to a balancing box.

CC(C)c1cccc2n(Cc3ccc(F)cc3)c(=O)c(-c3nnn[nH]3)c-2c1 [Example 9, 1-(4-Fluorobenzyl)-5-iso-propyl-3-(5-tetrazolyl)-1-azaazulane-2-one]
inhibition in vivo at 5 mg/kg [1]: 84.9 ± 2.2%
Swelling volume 4 hours after inflaming, mean ± standard error [2]: 0.55 mL and 0.55 ± 0.032 mL
Inhibition rate against swelling ([2]; vs 0.5% CMC group): 38.9%
inhibition at 10 µg/mL [3]: 99.8%
EC50 [4]: 8.6 µg/mL (≈ 23.7 µM)
